Results from ChEMBL document CHEMBL3507680, “University of Dundee, Gates Library screen for HepG2 cell viability”.

Assay: Human HepG2 cell viability assay in 384 well format
Assay type: toxicity, cell-based
Parameters: dose 125 nL, time 70.5 hour; cytotoxicity at 70.5 h: concentration not given beside the values
Settings: HepG2 cells, read-out: Inhibition

Row | Compound | cytotoxicity at 70.5 h
1 | COCCN1C2(CCN(C(=O)c3cccs3)C2)c2ccccc2S1(=O)=O (stereo not drawn) | 2.42%
2 | CCOCC(=O)N1CCCn2c(CN3CCCCC3)nnc2C1 | -1.12%
3 | c1ccc(N2CCOCC3(CCCN(c4nccs4)C3)C2)nc1 (stereo not drawn) | 4.3%
4 | NC(=O)N1CC[C@@H]2O[C@@H](COCC(=O)N3CCCC3)CC[C@@H]21 | 24%
5 | Cc1ccc(CS(=O)(=O)N2CC[C@H]3[C@H]2CC(=O)N3C)cc1 | -10.2%
6 | Cc1nnc([C@H]2C[C@@H]3CCN(Cc4cc(C)on4)C[C@H]3O2)[nH]1 | -4.17%
7 | CS(=O)(=O)N1CC[C@@H]2OC(COCC(=O)N3CCCC3)CC[C@@H]21 (stereo partly drawn) | -6.9%
8 | O=C1CC[C@H]2[C@H](CCN2C(=O)c2ccc[nH]2)N1CCN1CCOCC1 | 19.1%
9 | Cc1csc(CN2CC[C@H]3C[C@H](C)O[C@@H]3C2)n1 | -10.4%
10 | Cc1csc(CN2CC[C@H]3C[C@H](c4noc(C)n4)O[C@@H]3C2)n1 | -9.71%
11 | Cc1ncsc1CN1C[C@H]2OCC[C@H]2[C@H](C(=O)NCC2CC2)C1 | 2.15%
12 | Cc1csc(CN2CC[C@H]3C[C@@H](c4noc(C)n4)O[C@@H]3C2)n1 | -0.439%
13 | COC[C@@]12CCO[C@@H]1CCN(C(=O)Cc1ccc(C)cc1)C2 | 31.2%
14 | N#Cc1ccc(OC[C@]23COC[C@H]2CN(Cc2nccs2)C3)nc1 | -4.7%
15 | O=C(c1ccc2ccccc2n1)N1CCC2(CCN2c2ncccn2)C1 (stereo not drawn) | 2.64%
16 | Cc1noc([C@@H]2C[C@H]3OCC[C@H]3N(C(C)C)C2)n1 | 6.58%
17 | O=C1NC2(CCN(C(=O)N3CCOCC3)CC2)CC1c1cccnc1 (stereo not drawn) | 3.42%
18 | Cc1ccc(CN2Cc3c(C(=O)N4CCCC4)nn(C)c3C2)s1 | 22.4%
19 | COCCN1CC[C@@H]2OC(COCC(=O)N3CCCC3)CC[C@@H]21 (stereo partly drawn) | -3.03%

Row | Compound | cytotoxicity at 70.5 h
20 | CS(=O)(=O)NCc1cnc2n1CCN(Cc1ccco1)CC2 | -6.2%
21 | Cc1nc(CO[C@@H]2CN(Cc3cccs3)[C@@H]3COC[C@@H]32)cs1 | -9.88%
22 | Cc1ccc(CN2C[C@@H](OCc3csc(C)n3)[C@H]3COC[C@H]32)s1 | -10.6%
23 | Cc1ncsc1CN1C[C@H](C(=O)NCC2CC2)[C@@H]2CCO[C@@H]2C1 | -7.28%
24 | CS(=O)(=O)N1CCOCC2(CCN(C(=O)c3ccncc3)CC2)C1 | -6.51%
25 | COc1cc(N2C[C@H](C(=O)NCC3CC3)[C@@H]3CCO[C@@H]3C2)ncn1 | -11.6%
26 | Cc1nc(CO[C@@H]2CN(Cc3ccsc3)[C@@H]3COC[C@@H]32)cs1 | -6.52%
27 | CS(=O)(=O)NCc1cnc2n1CCN(Cc1cccs1)CC2 | -4.2%
28 | Cc1ccc(CN2CC3(CCN(C(=O)c4cscn4)C3)C2)o1 | -7.14%
29 | O=C(c1cscn1)N1CCC2(CN(Cc3ccoc3)C2)C1 | -9.97%
30 | CS(=O)(=O)NCc1cnc2n1CCN(Cc1ccccn1)CC2 | -1.27%
31 | Cc1ccc(C(=O)N2C[C@@H]3CCCO[C@@H]3[C@H](N(C)Cc3ccco3)C2)o1 | 28.7%
32 | Cc1ccc2nc(C3CCN(CC4CC4)CC3)nn2c1 | 32.6%
33 | O=S(=O)(C1CC1)N1CCO[C@H]2[C@@H](Oc3cccnc3)CC[C@@H]21 | -5.72%
34 | O=S(=O)(C1CC1)N1CCO[C@H]2[C@H](Oc3cccnc3)CC[C@@H]21 | -4.91%
35 | CN(C)CCN1CC[C@@H]2O[C@@H](COCC(=O)N3CCCC3)CC[C@@H]21 | -0.268%
36 | CS(=O)(=O)NCc1cnc2n1CCN(Cc1cccnc1)CC2 | -9.03%
37 | Cc1nc(CO[C@@H]2CN(Cc3cccnc3)[C@@H]3COC[C@@H]32)cs1 | -10.3%
38 | COCCN1C[C@@H]2[C@@H](OC)CCN(Cc3ccc(C)o3)[C@@H]2C1 | -1.05%
